Results published in article PMC7281072 (Cancers, 2020).

Experiments:
[1] = test system: ERK1,2 phosphorylation; assay: ERK1/2 phosphorylation ELISA, OVCAR-5 cells; format: cell-based, human; conditions: for Vmax ± SE, pERK 1/2 inhibition: Michaelis Menten model; for IC50: Homo sapiens, read-out: IC50, pERK 1/2 inhibition
[2] = test system: ERK1,2 phosphorylation; assay: ERK1/2 phosphorylation ELISA, SK-OV-3 cells; format: cell-based, human; conditions: for Vmax ± SE, pERK 1/2 inhibition: Michaelis Menten model; for IC50: Homo sapiens, read-out: IC50, pERK 1/2 inhibition
[3] = test system: ERK1,2 phosphorylation; assay: ERK1/2 phosphorylation ELISA, UWB1.289 cells; format: cell-based, human; conditions: for Vmax ± SE, pERK 1/2 inhibition: Michaelis Menten model; for IC50: Homo sapiens, read-out: IC50, pERK 1/2 inhibition
[4] = test system: ERK1,2 phosphorylation; assay: ERK1/2 phosphorylation ELISA, UWB1.289+BRCA1 cells; format: cell-based, human; conditions: for Vmax ± SE, pERK 1/2 inhibition: Michaelis Menten model; for IC50: Homo sapiens, read-out: IC50, pERK 1/2 inhibition
[5] = test system: AKT1,2 phosphorylation; assay: AKT phosphorylation ELISA, OVCAR-5 cells; format: cell-based, human; conditions: for Vmax ± SE, pAKT 1/2 inhibition: Michaelis Menten model; for IC50: Homo sapiens, read-out: IC50, pAKT 1/2 inhibition
[6] = test system: AKT1,2 phosphorylation; assay: AKT phosphorylation ELISA, OVCAR-3 cells; format: cell-based, human; conditions: for Vmax ± SE, pAKT 1/2 inhibition: Michaelis Menten model; for IC50: Homo sapiens, read-out: IC50, pAKT 1/2 inhibition
[7] = test system: AKT1,2 phosphorylation; assay: AKT phosphorylation ELISA, SK-OV-3 cells; format: cell-based, human; conditions: for Vmax ± SE, pAKT 1/2 inhibition: Michaelis Menten model; for IC50: Homo sapiens, read-out: IC50, pAKT 1/2 inhibition
[8] = test system: AKT1,2 phosphorylation; assay: AKT phosphorylation ELISA, UWB1.289 cells; format: cell-based, human; conditions: for Vmax ± SE, pAKT 1/2 inhibition: Michaelis Menten model; for IC50: Homo sapiens, read-out: IC50, pAKT 1/2 inhibition
[9] = test system: AKT1,2 phosphorylation; assay: AKT phosphorylation ELISA, UWB1.289+BRCA1 cells; format: cell-based, human; parameters: Vmax ± SE, pAKT 1/2 inhibition: unit not given beside the values; conditions: for Vmax ± SE, pAKT 1/2 inhibition: Michaelis Menten model; for IC50: Homo sapiens, read-out: IC50, pAKT 1/2 inhibition
[10] = test system: OVCAR-5 human ovarian adenocarcinoma xenograft; parameters: species or system CB17 SCID mice; conditions: mouse, in vivo
[11] = test system: pAKT; assay: Western immunoblotting densitometry, pAKT, OVCAR-3 cells; format: cell-based, human; conditions: 25 μM; for ratio [pAKT]/[GAPDH] band intensity: OVCAR-3 cells; for ratio [pAKT]/[GAPDH] band intensity, single blot (panel A): panel A upper set, cell line not given, control ratio 1.21
[12] = test system: pERK1,2; assay: Western immunoblotting densitometry, pERK1,2, OVCAR-3 cells; format: cell-based, human; conditions: 25 μM; for ratio [pERK1+pERK2]/[GAPDH] band intensity: OVCAR-3 cells; for ratio [pERK1+pERK2]/[GAPDH] band intensity, single blot (panel A): panel A upper set, cell line not given
[13] = test system: pAKT; assay: Western immunoblotting densitometry, pAKT, SKOV-3 cells; format: cell-based, human; conditions: 25 μM; for ratio [pAKT]/[GAPDH] band intensity: SKOV-3 cells; for ratio [pAKT]/[GAPDH] band intensity, single blot (panel A): panel A lower set, cell line not given, control ratio 0.996
[14] = test system: pERK1,2; assay: Western immunoblotting densitometry, pERK1,2, SKOV-3 cells; format: cell-based, human; conditions: 25 μM; for ratio [pERK1+pERK2]/[GAPDH] band intensity: SKOV-3 cells; for ratio [pERK1+pERK2]/[GAPDH] band intensity, single blot (panel A): panel A lower set, cell line not given
[15] = test system: OVCAR-3 cancer cell line
[16] = test system: OVCAR-5 cancer cell line
[17] = test system: SK-OV-3 cancer cell line
[18] = test system: UWB1.289 cancer cell line
[19] = test system: UWB1.289+BRCA1 cancer cell line
[20] = test system: CB17 SCID mice; conditions: both, mouse, in vivo, ip
[21] = test system: OVCAR-3 cancer cell line; assay: cells; conditions: Homo sapiens, OVCAR-3, 48 h
[22] = test system: OVCAR-5 cancer cell line; assay: cells; conditions: Homo sapiens, OVCAR-5, 48 h
[23] = test system: SK-OV-3 cancer cell line; assay: cells; conditions: Homo sapiens, SK-OV-3, 48 h
[24] = test system: UWB1.289 cancer cell line; assay: cells; conditions: Homo sapiens, UWB1289, 48 h
[25] = test system: UWB1.289+BRCA1 cancer cell line; assay: cells; conditions: Homo sapiens, 48 h
[26] = read-out: GI50 (50% Growth Inhibition)
[27] = read-out: IC50 (cytotoxic effect)

## C[C@]12CC[C@H]3[C@@H](CCC4=CC(=O)NCC[C@@]43C)[C@@H]1CC[C@@H]2OC(=O)CCOc1ccc(N(CCCl)CCCl)cc1 [ENGA-L06E, 5a,7a-dimethyl-2-oxo-2,3,4,5,5a,5b,6,7,7a,8,9,10,10a,10b,11,12-hexa decahydrocyclopenta [5, 6] naphtho [1,2-d] azepin-8-yl 3-(4-(bis(2-chloroethyl)amino)phenoxy) propanoate]
[1]; 15 min
  Vmax ± SE, pERK 1/2 inhibition: 68.95 ± 3.21
[1]; 30 min
  Vmax ± SE, pERK 1/2 inhibition: 74.99 ± 2.47
[1]; 60 min
  Vmax ± SE, pERK 1/2 inhibition: 80.67 ± 1.52
[1]; 0.25 h, 15 min
  IC50: 20 µM
[1]; 0.5 h, 30 min
  IC50: 14.1 µM
[1]; 1 h, 60 min
  IC50: 9.18 µM
[2]; 15 min
  Vmax ± SE, pERK 1/2 inhibition: 79.14 ± 2.62
[2]; 30 min
  Vmax ± SE, pERK 1/2 inhibition: 82.95 ± 1.69
[2]; 60 min
  Vmax ± SE, pERK 1/2 inhibition: 84.71 ± 1.60
[2]; 0.25 h, 15 min
  IC50: 13 µM
[2]; 0.5 h, 30 min
  IC50: 11 µM
[2]; 1 h, 60 min
  IC50: 8.78 µM
[3]; 15 min
  Vmax ± SE, pERK 1/2 inhibition: 76.21 ± 2.11
[3]; 60 min
  Vmax ± SE, pERK 1/2 inhibition: 89.63 ± 2.53
[3]; UWB1289, 0.25 h, 15 min
  IC50: 6.81 µM
[3]; UWB1289, 0.5 h, 30 min
  IC50: 4.12 µM
[3]; UWB1289, 1 h, 60 min
  IC50: 3.53 µM
[4]; 15 min
  Vmax ± SE, pERK 1/2 inhibition: 59.43 ± 1.10
[4]; 30 min
  Vmax ± SE, pERK 1/2 inhibition: 72.79 ± 1.14
[4]; 60 min
  Vmax ± SE, pERK 1/2 inhibition: 74.35 ± 0.49
[4]; 0.25 h, 15 min
  IC50: 28.7 µM
[4]; 0.5 h, 30 min
  IC50: 12.4 µM
[4]; 1 h, 60 min
  IC50: 9.29 µM
[5]; 15 min
  Vmax ± SE, pAKT 1/2 inhibition: 57.76 ± 3.49
[5]; 30 min
  Vmax ± SE, pAKT 1/2 inhibition: 59.24 ± 0.49
[5]; 60 min
  Vmax ± SE, pAKT 1/2 inhibition: 62.49 ± 0.25
[5]; 0.25 h, 15 min
  IC50: > 50 µM
[5]; 0.5 h, 30 min
  IC50: 49.8 µM
[5]; 1 h, 60 min
  IC50: 29.5 µM
[6]; 15 min
  Vmax ± SE, pAKT 1/2 inhibition: 57.71 ± 5.51
[6]; 30 min
  Vmax ± SE, pAKT 1/2 inhibition: 60.76 ± 2.97
[6]; 60 min
  Vmax ± SE, pAKT 1/2 inhibition: 62.20 ± 5.12
[6]; 0.25 h, 15 min
  IC50: 29.1 µM
[6]; 0.5 h, 30 min
  IC50: 24.4 µM
[6]; 1 h, 60 min
  IC50: 18.3 µM
[7]; 15 min
  Vmax ± SE, pAKT 1/2 inhibition: 79.23 ± 0.39
[7]; 30 min
  Vmax ± SE, pAKT 1/2 inhibition: 86.10 ± 1.13
[7]; 60 min
  Vmax ± SE, pAKT 1/2 inhibition: 87.27 ± 0.59
[7]; 0.25 h, 15 min
  IC50: 25.9 µM
[7]; 0.5 h, 30 min
  IC50: 22.3 µM
[7]; 1 h, 60 min
  IC50: 21.4 µM
[8]; 15 min
  Vmax ± SE, pAKT 1/2 inhibition: 62.12 ± 1.41
[8]; 30 min
  Vmax ± SE, pAKT 1/2 inhibition: 64.94 ± 4.22
[8]; 60 min
  Vmax ± SE, pAKT 1/2 inhibition: 71.12 ± 3.34
[8]; UWB1289, 0.25 h, 15 min
  IC50: 16.9 µM
[8]; UWB1289, 0.5 h, 30 min
  IC50: 14.4 µM
[8]; UWB1289, 1 h, 60 min
  IC50: 11.8 µM
[9]; 15 min
  Vmax ± SE, pAKT 1/2 inhibition: 59.78 ± 4.67
[9]; 30 min
  Vmax ± SE, pAKT 1/2 inhibition: 57.10 ± 3.38
[9]; 60 min
  Vmax ± SE, pAKT 1/2 inhibition: 63.12 ± 4.19
[9]; 0.25 h, 15 min
  IC50: 44.4 µM
[9]; 0.5 h, 30 min
  IC50: 40.3 µM
[9]; 1 h, 60 min
  IC50: 25.8 µM
[10]
  Median Overall Survival (OS): 98 days
  Progression Free Survival (PFS): 27 days
  Response Rate (RR): 100%
[10]; ip
  Cures (mice alive for 120 days after tumor inoculation): 0/5
  MST (mean survival time): 93.2 ± 2.4 p < 0.01 Days
  T/C% (mean survival time of treated versus saline controls): 184.8%
  TI% (Tumor Inhibition): 117.0%
  size of the primary tumor: 220 ± 19.1 mm^3
[11]; 30min, control ratio 1.23
  ratio [pAKT]/[GAPDH] band intensity: 0.92
[11]; 1h, control ratio 1.14
  ratio [pAKT]/[GAPDH] band intensity: 0.62
[11]; 3h, control ratio 1.27
  ratio [pAKT]/[GAPDH] band intensity: 0.61
[11]; 6h, control ratio 1.26
  ratio [pAKT]/[GAPDH] band intensity: 0.54
[11]; 12h, control ratio 1.18
  ratio [pAKT]/[GAPDH] band intensity: 0.50
[11]; 24h, control ratio 1.29
  ratio [pAKT]/[GAPDH] band intensity: 0.59
[11]; 1h
  ratio [pAKT]/[GAPDH] band intensity, single blot (panel A): 0.52
[11]; 3h
  ratio [pAKT]/[GAPDH] band intensity, single blot (panel A): 0.22
[12]; 30min, control ratio 1.71
  ratio [pERK1+pERK2]/[GAPDH] band intensity: 1.40
[12]; 1h, control ratio 1.65
  ratio [pERK1+pERK2]/[GAPDH] band intensity: 0.96
[12]; 3h, control ratio 1.99
  ratio [pERK1+pERK2]/[GAPDH] band intensity: 1.11
[12]; 6h, control ratio 1.85
  ratio [pERK1+pERK2]/[GAPDH] band intensity: 0.54
[12]; 12h, control ratio 1.82
  ratio [pERK1+pERK2]/[GAPDH] band intensity: 0.49
[12]; 24h, control ratio 1.92
  ratio [pERK1+pERK2]/[GAPDH] band intensity: 0.58
[12]; 1h, control ratio 1.85
  ratio [pERK1+pERK2]/[GAPDH] band intensity, single blot (panel A): 0.74
[12]; 3h, control ratio 1.85
  ratio [pERK1+pERK2]/[GAPDH] band intensity, single blot (panel A): 1.02
[13]; 15min, control ratio 0.98
  ratio [pAKT]/[GAPDH] band intensity: 0.94
[13]; 30min, control ratio 0.98
  ratio [pAKT]/[GAPDH] band intensity: 0.78
[13]; 1h, control ratio 1.02
  ratio [pAKT]/[GAPDH] band intensity: 0.73
[13]; 3h, control ratio 0.99
  ratio [pAKT]/[GAPDH] band intensity: 0.65
[13]; 12h, control ratio 0.94
  ratio [pAKT]/[GAPDH] band intensity: 0.58
[13]; 1h
  ratio [pAKT]/[GAPDH] band intensity, single blot (panel A): 0.40
[13]; 3h
  ratio [pAKT]/[GAPDH] band intensity, single blot (panel A): 0.20
[14]; 15min, control ratio 1.70
  ratio [pERK1+pERK2]/[GAPDH] band intensity: 1.91
[14]; 30min, control ratio 1.70
  ratio [pERK1+pERK2]/[GAPDH] band intensity: 1.74
[14]; 1h, control ratio 1.78
  ratio [pERK1+pERK2]/[GAPDH] band intensity: 1.35
  ratio [pERK1+pERK2]/[GAPDH] band intensity, single blot (panel A): 0.99
[14]; 3h, control ratio 1.74
  ratio [pERK1+pERK2]/[GAPDH] band intensity: 0.68
[14]; 12h, control ratio 1.61
  ratio [pERK1+pERK2]/[GAPDH] band intensity: 0.65
[14]; 3h, control ratio 1.78
  ratio [pERK1+pERK2]/[GAPDH] band intensity, single blot (panel A): 0.39
[15]
  TGI (Total Growth Inhibition): 32 ± 1.8 μΜ
[16]
  TGI (Total Growth Inhibition): 42 ± 2.8 μΜ
[17]
  TGI (Total Growth Inhibition): 52 ± 3.3 μΜ
[18]
  TGI (Total Growth Inhibition): 8 ± 0.8 μΜ
[19]
  TGI (Total Growth Inhibition): 28 ± 1.9 μΜ
[20]
  LD10: 120 mg/kg
[21]; [26]
  GI50: 22 ± 0.9 µM
[21]; [27]
  IC50: 43 ± 2.9 µM
[22]; [26]
  GI50: 25 ± 1.4 µM
[22]; [27]
  IC50: 65 ± 3.4 µM
[23]; [26]
  GI50: 18 ± 0.9 µM
[23]; [27]
  IC50: 76 ± 7.5 µM
[24]; [26]
  GI50: 3.5 ± 0.4 µM
[24]; [27]
  IC50: 20 ± 1.1 µM
[25]; [26]
  GI50: 12 ± 0.7 µM
[25]; [27]
  IC50: 40 ± 3.5 µM
